Laboratory results published in article PMC10349806 (Nature Communications, 2023).
Several values for one entry are separate records, joined by “and”; a condition that tells them apart may be missing. Equal entries are not always repeated.

Key:
[1] = biological target: PfCRT^Dd2 (Plasmodium falciparum, UniProt Q9N623, A220S/I356T/K76T/M74I/N326S/N75E/Q271E/R371I); test: Drug uptake assay, X. laevis oocytes expressing PfCRT^Dd2; format: cell-based; conditions: for PfCRTDd2 transport activity pH 6.0: 50 µM external drug, 1 h, independent samples (means in Fig 4c)
Experimental: (§1) Oocytes were obtained as described previously. Briefly, adult (>2 years old) female X. laevis frogs (NASCO) were anesthetized in a cooled solution of ethyl 3-amino benzoate methanesulfonate (0.1%, w/v), followed by a surgical removal of parts of the ovary. The ovary lobes were carefully dissected and small pieces of oocytes were incubated in Ca^2+-free ND96 buffer (96 mM NaCl, 2 mM KCl, 1 mM MgCl2 buffered with 5 mM HEPES/NaOH, pH 7.5) supplemented with collagenase D (0.1%, w/v; Roche), BSA (0.5%, w/v), and 9 mm Na2HPO4 at 18 °C for 14-16 h while gentle shaking. After incubation, the oocytes were carefully washed several times with ND96 buffer (96 mM NaCl, 2 mM KCl, 1.8 mM CaCl2, 1 mM MgCl2 buffered with 5 mM HEPES/NaOH, pH 7.5) supplemented with 100 mg l^−1 gentamycin). Defolliculated and healthy-looking stage V-VI oocytes were manually selected for RNA microinjection. The RNA was generated as following: The codon-optimized sequences of PfCRT variants were cloned into the pSP64T expression vector. After vector linearization using the restriction endonucleases BamHI or SalI (New England Biolabs), transcription was performed using the in vitro SP6 mMessage mMachine Kit (Ambion)[34]. The obtained RNA was kept at −80 °C and diluted with nuclease-free water to a concentration of 0.6 μg μl^−1. Precision-bore glass capillary tubes (3.5-inch glass capillaries; Drummond Scientific Co.) were pulled on a vertical puller (P-87 Flaming/Brown micropipette puller, Sutter Instrument Co.), graduated, and placed on a microinjector (Nanoject II Auto-Nanoliter Injector, Drummond Scientific Co.). 50 nl of nuclease-free water alone (control oocytes) or 50 nl of 0.6 μg μl^−1 RNA were injected under stereomicroscopic control. Injected oocytes were incubated for 46–72 h at 18 °C with twice-daily buffer changes before usage in experiments.
Drug uptake assays were performed as described previously[21],[22],[24],[34]. […] The direction of radio-labeled drug transport is here from the mostly acidic extracellular solution (pH 4.5 or 6.0, as indicated) into the oocyte cytosol (pH ∼ 7.2), which corresponds to the efflux of drug from the acidic digestive vacuole (pH 5.2) into the parasite cytoplasm (pH 7.2). The topology of PfCRT in the oolemma is such that both the N- and C-terminus face the extracellular milieu[3],[22]. In the parasite, the N- and C-terminus face the lumen of the digestive vacuole. […] For determination of the amount of drug uptake for each oocyte, the reaction medium was removed and the oocytes were washed three times with 2 ml of ice-cold ND96 buffer. Each oocyte was individually transferred to a scintillation vial containing 5% sodium dodecyl sulfate (200 μl) for lysis. […] Oocytes that were injected with water instead of RNA were analyzed in parallel, representing the uptake of a drug by diffusion and/or endogenous permeation pathways. The resulting value represents the “background“ level of drug accumulation in oocytes (in-depth discussion in[22]). The specific PfCRT-mediated uptake was determined by subtracting the corresponding background value measured in water-injected oocytes from that of PfCRT-expressing oocytes. In all cases, at least three separate experiments were performed on oocytes from different frogs (biological replicate), and for each condition in an experiment, measurements were made from 10 oocytes per treatment. For pH 5.5, 6.0, and 6.5, ND96 was buffered with 5 mM MES/Tris base. For pH 4.5, 5 mM Homo-Pipes was used as a buffer and 5 mM HEPES for uptake at pH 7.0.

[2] = test system: PfCRT variant E207A; test: Drug uptake assay, oocytes expressing E207A; format: cell-based, Plasmodium falciparum; conditions: for E207A transport activity pH 4.5 / E207A transport activity pH 6.0: 50 µM external drug, 1 h
Experimental: Site-directed mutagenesis of PfCRT^Dd2 was performed as described using the megaprimer method with overlap extension[21],[54]. The primer pairs used are listed in Supplementary Table 6. Please note that a codon-optimized and oocyte-adapted version of PfCRT^Dd2 was used[22] (Supplementary Fig. 16). The resulting DNA fragment was cloned into the SP64T expression vector and verified by sequencing.
as §1
Drug uptake assays were performed as described previously[21],[22],[24],[34]. […] The direction of radio-labeled drug transport is here from the mostly acidic extracellular solution (pH 4.5 or 6.0, as indicated) into the oocyte cytosol (pH ∼ 7.2), which corresponds to the efflux of drug from the acidic digestive vacuole (pH 5.2) into the parasite cytoplasm (pH 7.2). The topology of PfCRT in the oolemma is such that both the N- and C-terminus face the extracellular milieu[3],[22]. In the parasite, the N- and C-terminus face the lumen of the digestive vacuole. […] For determination of the amount of drug uptake for each oocyte, the reaction medium was removed and the oocytes were washed three times with 2 ml of ice-cold ND96 buffer. Each oocyte was individually transferred to a scintillation vial containing 5% sodium dodecyl sulfate (200 μl) for lysis. […] Oocytes that were injected with water instead of RNA were analyzed in parallel, representing the uptake of a drug by diffusion and/or endogenous permeation pathways. The resulting value represents the “background“ level of drug accumulation in oocytes (in-depth discussion in[22]). The specific PfCRT-mediated uptake was determined by subtracting the corresponding background value measured in water-injected oocytes from that of PfCRT-expressing oocytes. In all cases, at least three separate experiments were performed on oocytes from different frogs (biological replicate), and for each condition in an experiment, measurements were made from 10 oocytes per treatment. For pH 5.5, 6.0, and 6.5, ND96 was buffered with 5 mM MES/Tris base.

[3] = test system: CCN(CC)CCCC(C)Nc1ccnc2cc(Cl)ccc12; test: Drug uptake assay, X. laevis oocytes expressing PfCRT^Dd2; format: cell-based, Plasmodium falciparum; conditions: 18.0 °C
Experimental: Oocytes were obtained as described previously[24]. Briefly, adult (>2 years old) female X. laevis frogs (NASCO) were anesthetized in a cooled solution of ethyl 3-amino benzoate methanesulfonate (0.1%, w/v), followed by a surgical removal of parts of the ovary. The ovary lobes were carefully dissected and small pieces of oocytes were incubated in Ca^2+-free ND96 buffer (96 mM NaCl, 2 mM KCl, 1 mM MgCl2 buffered with 5 mM HEPES/NaOH, pH 7.5) supplemented with collagenase D (0.1%, w/v; Roche), BSA (0.5%, w/v), and 9 mm Na2HPO4 at 18 °C for 14-16 h while gentle shaking. After incubation, the oocytes were carefully washed several times with ND96 buffer (96 mM NaCl, 2 mM KCl, 1.8 mM CaCl2, 1 mM MgCl2 buffered with 5 mM HEPES/NaOH, pH 7.5) supplemented with 100 mg l^−1 gentamycin). Defolliculated and healthy-looking stage V-VI oocytes were manually selected for RNA microinjection. […]
Drug uptake assays were performed as described previously[21],[22],[24],[34]. […] Oocytes that were injected with water instead of RNA were analyzed in parallel, representing the uptake of a drug by diffusion and/or endogenous permeation pathways. […] The specific PfCRT-mediated uptake was determined by subtracting the corresponding background value measured in water-injected oocytes from that of PfCRT-expressing oocytes. […]

[4] = CQ transport in the presence of verapamil, independent samples

Chain of PfCRT^Dd2 (Q9N623 whole entry A220S/I356T/K76T/M74I/N326S/N75E/Q271E/R371I): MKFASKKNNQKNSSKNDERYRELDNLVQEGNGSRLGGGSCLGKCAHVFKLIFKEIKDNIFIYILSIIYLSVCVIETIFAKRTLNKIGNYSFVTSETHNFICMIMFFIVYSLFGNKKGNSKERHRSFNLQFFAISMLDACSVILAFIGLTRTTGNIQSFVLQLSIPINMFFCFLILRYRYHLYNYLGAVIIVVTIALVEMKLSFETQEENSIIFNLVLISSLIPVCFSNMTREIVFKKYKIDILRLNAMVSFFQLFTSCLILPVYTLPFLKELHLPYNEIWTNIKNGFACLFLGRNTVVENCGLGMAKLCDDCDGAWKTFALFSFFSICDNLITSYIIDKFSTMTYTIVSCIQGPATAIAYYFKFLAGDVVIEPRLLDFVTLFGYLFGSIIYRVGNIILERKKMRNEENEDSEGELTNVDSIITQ

Molecule	PfCRTDd2 transport activity pH 6.0 [1]	E207A transport activity pH 4.5 ([2]; independent samples)	E207A transport activity pH 6.0 ([2]; independent samples)	also measured
NC12CC3CC(CC(C3)C1)C2 [AMA, amantadine]	3.96 pmol oocyte-1 h-1 and 5.23 pmol oocyte-1 h-1 and 3.48 pmol oocyte-1 h-1			
Clc1ccc2c(N3CCN(CCCN4CCN(c5ccnc6cc(Cl)ccc56)CC4)CC3)ccnc2c1 [PPQ, piperaquine]	28.14 pmol oocyte-1 h-1 and 21.87 pmol oocyte-1 h-1 and 30.01 pmol oocyte-1 h-1 and 33.33 pmol oocyte-1 h-1	9.66 pmol oocyte-1 h-1 and 9.12 pmol oocyte-1 h-1 and 9.57 pmol oocyte-1 h-1 and 5.62 pmol oocyte-1 h-1	8.93 pmol oocyte-1 h-1 and 12.01 pmol oocyte-1 h-1 and 12.48 pmol oocyte-1 h-1 and 12.86 pmol oocyte-1 h-1	
C=C[C@H]1C[N@@]2CC[C@H]1C[C@@H]2[C@@H](O)c1ccnc2ccc(OC)cc12 [QD, quinidine]	4.23 pmol oocyte-1 h-1 and 3.26 pmol oocyte-1 h-1 and 4.00 pmol oocyte-1 h-1 and 4.74 pmol oocyte-1 h-1 and 4.12 pmol oocyte-1 h-1 and 4.59 pmol oocyte-1 h-1	1.55 pmol oocyte-1 h-1 and 1.47 pmol oocyte-1 h-1 and 1.04 pmol oocyte-1 h-1 and 1.61 pmol oocyte-1 h-1	2.30 pmol oocyte-1 h-1 and 2.18 pmol oocyte-1 h-1 and 1.61 pmol oocyte-1 h-1 and 1.77 pmol oocyte-1 h-1 and 2.20 pmol oocyte-1 h-1	
C=C[C@H]1C[N@@]2CC[C@H]1C[C@H]2[C@H](O)c1ccnc2ccc(OC)cc12 [QN, quinine]	6.11 pmol oocyte-1 h-1 and 5.59 pmol oocyte-1 h-1 and 5.35 pmol oocyte-1 h-1 and 4.57 pmol oocyte-1 h-1	1.81 pmol oocyte-1 h-1 and 1.79 pmol oocyte-1 h-1 and 2.22 pmol oocyte-1 h-1 and 1.30 pmol oocyte-1 h-1 and 1.76 pmol oocyte-1 h-1	2.22 pmol oocyte-1 h-1 and 1.72 pmol oocyte-1 h-1 and 2.41 pmol oocyte-1 h-1 and 2.60 pmol oocyte-1 h-1	
CC[C@]1(O)C[C@@H]2CN(CCc3c([nH]c4ccccc34)[C@@](C(=O)OC)(c3cc4c(cc3OC)N(C)[C@H]3[C@@](O)(C(=O)OC)[C@H](OC(C)=O)[C@]5(CC)C=CCN6CC[C@]43[C@@H]65)C2)C1 [VNB, vinblastine]	n.u.		n.u.	transport of the drug by E207A ([2]; pH 6.0, in words): Neither PfCRT^Dd2 nor E207A acted on; transport of the drug by PfCRT^Dd2 ([1]; pH 6.0, in words): Neither PfCRT^Dd2 nor E207A acted on
CC[C@]1(O)C[C@H]2CN(CCc3c([nH]c4ccccc34)[C@@](C(=O)OC)(c3cc4c(cc3OC)N(C=O)[C@H]3[C@@](O)(C(=O)OC)[C@H](OC(C)=O)[C@]5(CC)C=CCN6CC[C@]43[C@@H]65)C2)C1 [VNC, vincristine]	n.u.		n.u.	transport of the drug by E207A ([2]; pH 6.0, in words): Neither PfCRT^Dd2 nor E207A acted on; transport of the drug by PfCRT^Dd2 ([1]; pH 6.0, in words): Neither PfCRT^Dd2 nor E207A acted on
COc1ccc(CCN(C)CCCC(C#N)(c2ccc(OC)c(OC)c2)C(C)C)cc1OC (stereo not drawn) [VP, verapamil]				E207A CQ + VP transport activity pH 6.0 [2, 4]: 0.66 pmol oocyte-1 h-1 and 0.74 pmol oocyte-1 h-1 and 0.45 pmol oocyte-1 h-1; effect on CQ transport by E207A ([2]; pH 6.0, in words): blocked CQ transport; PfCRTDd2 CQ + VP transport activity pH 6.0 [1, 4]: 1.45 pmol oocyte-1 h-1 and 1.56 pmol oocyte-1 h-1 and 1.71 pmol oocyte-1 h-1 and 1.84 pmol oocyte-1 h-1; effect on CQ transport by PfCRT^Dd2 ([1]; pH 6.0, in words): blocked CQ transport
PfCRT^Dd2 (Plasmodium falciparum; A220S/I356T/K76T/M74I/N326S/N75E/Q271E/R371I)				Km ([3]; other: PfCRT^Dd2, pH 4.5, pH 4.5): 200 ± 60 µM; Km ([3]; other: PfCRT^Dd2, pH 6.0, pH 6.0): 270 ± 50 µM
